# Assay results taken from article PMC7226370, “Thymus algeriensis and Thymus fontanesii: Chemical Composition, In Vivo Antiinflammatory, Pain Killing and Antipyretic Activities: A Comprehensive Comparison” (Biomolecules, 2020).
# Legend:
# [1] = Total antioxidant capacity (TAC) ELISA kit; conditions: mean ± SEM, n = 3
# Procedure: The total antioxidant capacity of the extracts was evaluated against ascorbic acid as a reference standard using the commercially available TAC ELISA kit (MBS726896, my BioSource, Inc., San Diego, CA, USA) according to the manufacturer’s instructions and according to Sobeh et al..
# [2] = tested on: leukocyte migration into the peritoneal cavity in mice; experiment: Carrageenan-induced leukocyte recruitment into peritoneal cavity; type: in vivo, mouse
# Procedure: Three hours later, the mice were euthanized, and each peritoneal cavity was washed with 3 mL of phosphate-buffered saline (PBS) containing 1mM ethylenediaminetetraacetic acid (EDTA). The total leukocytes count was determined in each peritoneal cavity wash using a hemocytometer and presented as number of cells/mL.
# [3] = tested on: acetic acid-induced vascular permeability in mice; experiment: Acetic acid-induced vascular permeability (Evans blue); type: in vivo, mouse
# Procedure: Acetic acid-induced vascular permeability was done as described by Sobeh et al.. […] One group of mice was injected with normal saline to serve as normal control. Mice were euthanized 30 min later by cervical dislocation, the abdominal cavities were washed with 3 mL saline solution, and the collected washings were then centrifuged at 3000 rpm for 10 min. The vascular permeability is proportional to the absorbance of Evans blue dye in the supernatant, which was detected at 610 nm using a plate reader (Biotech, Winooski, VT, USA).
# lipoxygenase (5-LOX) = experiment: Lipoxygenase inhibitor screening assay kit; type: biochemical; conditions: in vitro, mean ± SEM, n = 3
# Procedure: The potential of T. algeriensis and T. fontanesii extracts to inhibit lipoxygenase was evaluated using a lipoxygenase inhibitor screening assay kit (Cayman Chemical, AnnArbor, MI, USA) according to the manufacturer’s instructions and the study by Adellall et al..
# [4] = tested on: carrageenan-induced hind paw edema in rats; experiment: Carrageenan-induced hind-paw edema model; type: in vivo, rat; conditions: 1 h before carrageenan
# Procedure: Nine groups of male rats (200-220 g) with five animals per group were used in this experiment. Induction of edema in the rats' right hind paw was done by injecting 0.1 mL freshly prepared carrageenan solution (1% in 0.9% NaCl), into the sub-plantar tissue. […] By the aid of a caliper ruler, the paw thickness (mm) was measured in the dorsal- plantar axis before and after injecting the carrageenan solution, and at hourly intervals for 5 h, and finally at 24 h. The cumulative anti-inflammatory effect during the whole observation period (0-24 h) was determined by calculating the area under the changes in paw thickness-time curve (AUC0-24).
# [5] = tested on: Brewer's yeast induced pyrexia in mice; experiment: Brewer's yeast induced pyrexia; type: in vivo, mouse; conditions: in °C (unit assumed)
# Procedure: Pyrexia in mice was induced as described by Liu et al. with minor modifications. The initial rectum temperature of each animal was measured using a lubricated digital thermometer. Brewer’s yeast suspension was prepared in normal saline (30%) and injected subcutaneously behind the animal’s neck (1 mL/100 g). After 18 h, animals’ rectal temperatures were measured again (T0). […] Pyretic animals were treated orally with either T. algeriensis or T. fontanesii extracts in three dose levels (200, 400, and 600 mg/kg), paracetamol (150 mg/kg), or vehicle. Rectal temperatures were measured at 30 min, 1, 2, 3 and 24 h following the different treatments.
structure (smiles),measurement,setting,value
O=C1O[C@H]([C@@H](O)CO)C(O)=C1O [Ascorbic Acid],TAC (total antioxidant capacity),[1],27.6 ± 1.40 U/L
O=C(O)Cc1ccccc1Nc1c(Cl)cccc1Cl [Diclofenac],reduction in leucocyte number,[2]; 20 mg/kg p.o. before carrageenan 500 µg i.p.,39%
same,lower Evans blue readings compared to control,[3]; 20 mg/kg,73%
same,IC50,lipoxygenase (5-LOX),2600 ± 210 nM
same,"reduction of paw thickness, of control AUC0-24",[4]; 20 mg/kg p.o.,44%
CC(=O)Nc1ccc(O)cc1 [Paracetamol],"Rectal Temperature Recorded Following Different Treatments, 30 min","[5]; 150 mg/kg p.o., 30 min",38.18 ± 0.20
same,"Rectal Temperature Recorded Following Different Treatments, 1 h","[5]; 150 mg/kg p.o., 1 h",37.56 ± 0.30
same,"Rectal Temperature Recorded Following Different Treatments, 2 h","[5]; 150 mg/kg p.o., 2 h",37.06 ± 0.29
same,"Rectal Temperature Recorded Following Different Treatments, 3 h","[5]; 150 mg/kg p.o., 3 h",36.94 ± 0.25
same,"Rectal Temperature Recorded Following Different Treatments, 24 h","[5]; 150 mg/kg p.o., 24 h",36.54 ± 0.23
same,Rectal Temperature measured at 18 h after yeast injection,"[5]; group of 150 mg/kg, before treatment (T0)",38.66 ± 0.18
CC(c1cc2ccccc2s1)N(O)C(N)=O (stereo not drawn) [Zileuton],IC50,lipoxygenase (5-LOX),3200 ± 150 nM
C[C@@H]1C[C@H]2[C@@H]3CCC4=CC(=O)C=C[C@]4(C)[C@@]3(F)[C@@H](O)C[C@]2(C)[C@@]1(O)C(=O)CO [dexamethasone],reduction in leucocyte number,[2]; 2 mg/kg p.o. before carrageenan 500 µg i.p.,30%
same,lower Evans blue readings compared to control,[3]; 2 mg/kg,60%
same,reduction in AUC0-24 values compared to vehicle-treated rats,[4]; 2 mg/kg p.o.,51%
